Source: patent US12410187B2, “Fused tricyclic compounds useful as anticancer agents” (ASTRAZENECA AB, priority 2019, dated 2025)
pIC50: −log10 of the molar value. Read-outs that look alike come from different tables or passages of the source.

Assays:
[1] = target: T1, KRasG12C (Homo sapiens, UniProt P01116, G12C); assay: KRasG12C mass spectrometry adducting assay; type: binding; settings: test compound final concentration 10 μM, 4 hours reaction with 4 μM GDP loaded biotinylated KRasG12C
T1 construct: biotin (biotinylated); made in house
Experimental: Enzyme solutions were prepared in assay buffer containing 20 mM HEPES (pH 7.5), 5 mM MgCl2, and 150 mM NaCl. […] The plate was sealed before reading on a Xevo G2 QTOF (Waters) and Acquity LC system (Waters). 10 μl of sample was injected onto a Xbridge BEH300; C4; 3.5 um; 2.1×50 mm column (Waters) running a 3 minute gradient. Blank samples were run in between each test sample.
Data was analysed in Mass Lynx software (Waters), the Total ion count (TIC) trace was used and the eluted protein peak data combined. Using the combined spectrum the data was deconvoluted using MaxEnt1 method. The peak area for apo-protein KRas^G12C (APO) and KRAS+relative cmpd mass (adduct) were measured, and a percentage adduct was calculated using the following calculation: Percent adduct=100*(area of adduct peak/(sum of APO+adduct peaks).
The data from this mass spectrometry adducing assay is presented in the column labelled KRasG12C M.S. Binding Mean adduct % in Table A below.

[2] = target: T1, KRasG12C; assay: KRasG12C functional assay (HTRF/FRET nucleotide exchange and Raf RBD binding); type: biochemical; settings: samples incubated for 4 hrs, FRET readout, single experiment or average of two or more
Experimental: All enzyme and substrate solutions were prepared in assay buffer containing 20 mM HEPES (pH 7.5), 5 mM MgCl2, 150 mM NaCl, and 0.01% Tween 20. […] In a separate mix 20 nM GST-Raf Ras binding domain (GST-Raf RBD, purified in house) and 4 μg/ml anti-GST XL665 antibody (Cisbio) was prepared in assay buffer containing 50 mM Potassium Fluoride and 0.05 mg/ml BSA and equilibrated for 4 hours before adding 0.6 μM Guanosine 5′-[γ-thio]triphosphate (GTPγS, Sigma) and 0.08 μM SOS (purified in house). 5 μl of the GST-RAF RBD mix was then dispensed into each well of the assay plate. […] This is detected simultaneously via the specific binding interaction between active GTPγS KRas^G12C with GST-Raf RBD which brings the europium and XL665 into close proximity enabling an increased FRET signal to be detected on a Pherastar (BMG) plate reader equipped with the HTRF filter module. […] IC50 values were calculated from normalised dose-response response FRET data curve fitted in Genedata screener (Basel, Switzerland).

[3] = tested on: MDR1 (Pgp) and BCRP; assay: Blood brain barrier penetrant assessment: efflux ratio in MDCK_MDR1_BCRP cells; type: in vitro ADME; settings: human, MDCK cells doubly transfected with MDR1 (Pgp) and BCRP, ratio of 2 or less = potential for good BBB penetration, read-out: Hu MDCK-MDR1-BCRP (0.1 uM) Mean Efflux Ratio
Experimental: In order to evaluate blood brain barrier (BBB) penetrant properties the efflux properties of compounds according to the specification was measured in cells transfected with the major efflux pumps expressed in the endothelial cells of the BBB. The assessment of efflux properties was performed using Madin-Darby Canine Kidney (MDCK) cells doubly transfected with MDR1 (Pgp) and BCRP. The transfected cell line, MDCK_MDR1_BCRP, thus expresses the two main efflux pumps that actively serve to exclude transit of compounds across the BBB and the efflux ration from these cell can be measured as described in the literature (Durant et al, Sci. Adv. 2018; eeat:1719). A compound that has an efflux ratio of 2 or less as measured by this technique is identified as having the potential for good BBB penetrant properties (Colclough et al, Drug Disc. Today 2019; 24(5), 1067-73).

[4] = KRasG12C functional assay IC50, GDP loaded biotinylated KRasG12C
[5] = GDP loaded biotinylated KRasG12C, read-out: KRasG12C functional assay IC50

T1 sequence (P01116 1-188 isoform P01116-2 G12C): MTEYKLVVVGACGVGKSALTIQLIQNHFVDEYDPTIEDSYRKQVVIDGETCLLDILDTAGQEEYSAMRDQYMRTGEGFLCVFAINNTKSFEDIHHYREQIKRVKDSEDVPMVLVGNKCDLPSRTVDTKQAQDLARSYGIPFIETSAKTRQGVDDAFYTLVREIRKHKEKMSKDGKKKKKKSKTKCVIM

C=CC(=O)N1CCN2Cc3cc(F)c(-c4c(C)cccc4O)c(F)c3OC[C@H]2C1 (single isomer, unassigned) [Example 45]
KRasG12C M.S. Binding Mean adduct % [1]: 97%
pIC50 [2, 4]: 7.18
efflux ratio at 0.1 uM [3]: 1.3

C=CC(=O)N1CCN2Cc3ccc(-c4c(C)ccc5[nH]ncc45)c(Cl)c3OC[C@@H]2C1 (single isomer, unassigned) [Example 4]
KRasG12C M.S. Binding Mean adduct % [1]: 0%
pIC50 [2, 4]: 4.13
efflux ratio at 0.1 uM [3]: 0.9

C=CC(=O)N1CCN2Cc3cc(F)c(-c4c(O)cccc4Cl)c(F)c3OC[C@H]2C1 (single isomer, unassigned) [Example 42]
KRasG12C M.S. Binding Mean adduct % [1]: 12%
pIC50 [2, 4]: 5.58

C=CC(=O)N1CCN2Cc3cc(F)c(-c4c(O)cccc4Cl)c(F)c3OC[C@H]2C1 (single isomer, unassigned) [Example 43]
KRasG12C M.S. Binding Mean adduct % [1]: 95%
pIC50 [2, 4]: 7.48
efflux ratio at 0.1 uM [3]: 0.7

C=CC(=O)N1CCN2Cc3ccc(-c4c(C)ccc5[nH]ncc45)c(Cl)c3OC[C@H]2C1 (single isomer, unassigned) [Example 10]
KRasG12C M.S. Binding Mean adduct % [1]: 97%
pIC50 [2, 4]: 6.48

C=CC(=O)N1CCN2Cc3cc(F)c(-c4c(O)cccc4Br)c(F)c3OC[C@H]2C1 (single isomer, unassigned) [Example 59]
pIC50 [2, 5]: 7.49
efflux ratio at 0.1 uM [3]: 0.8

C=CC(=O)N1CCN2C(=O)c3ccc(-c4c(C)ccc5[nH]ncc45)c(Cl)c3OC[C@H]2C1 (single isomer, unassigned) [Example 8]
KRasG12C M.S. Binding Mean adduct % [1]: 91%
pIC50 [2, 4]: 6.16

C#Cc1cc2c(c(F)c1-c1c(O)cccc1Cl)OC[C@H]1CN(C(=O)C=C)CCN1C2 (single isomer, unassigned) [Example 76]
pIC50 [2, 4]: 7.73
efflux ratio at 0.1 uM [3]: 0.8

C=CC(=O)N1CCN2Cc3cc(F)c(-c4c(O)cccc4C(F)(F)F)c(F)c3OC[C@H]2C1 (single isomer, unassigned) [Example 49]
pIC50 [2, 5]: 7.19
efflux ratio at 0.1 uM [3]: 0.9

C=CC(=O)N1CCN2Cc3ccc(-c4c(C)ccc5[nH]ncc45)c(Cl)c3OC[C@@H]2C1 (single isomer, unassigned) [Example 3]
KRasG12C M.S. Binding Mean adduct % [1]: 80%
pIC50 [2, 4]: 5.85

C#Cc1c2c(cc(F)c1-c1c(C)cccc1O)CN1CCN(C(=O)C=C)C[C@@H]1CO2 (single isomer, unassigned) [Example 65]
pIC50 [2, 5]: 6.74
efflux ratio at 0.1 uM [3]: 1.4
